Assays:
Experiment in all cases: relative viability (nuclei count vs DMSO), 5 days (fraction); higher = more cells survive
[1] = compound: CN1C=C(C2=CC=CC=C21)/C=C\3/C4=C(C=CC=N4)NC3=O + COc1cc2c(Oc3ccc(NC(=O)C4(C(=O)Nc5ccc(F)cc5)CC4)cc3F)ccnc2cc1OCCCN1CCOCC1 [Foretinib] (partner 0.25 µM)
Method in brief: (§1)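 A single step with final 0.05% Triton X-100, 1% formaldehyde and 1 ug/ml Hoechst fixed the cells and stained nuclei 5 days after treatment. Lung cancer cell lines in 1536-well plates had been treated by pin tool the day after seeding with one drug alone or a fixed anchor-drug dose plus five library-drug doses (not always all listed) in √10 steps, and nuclei were counted on 4× images. Relative viability is the ratio of nuclei in treated wells to nuclei in vehicle wells, taken as the median of duplicate plates.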

[2] = compound: CN1C=C(C2=CC=CC=C21)/C=C\3/C4=C(C=CC=N4)NC3=O + O=C(CCCCCCC(=O)Nc1ccccc1)NO [Vorinostat] (partner 1 µM)
Method in brief: as §1

Trametinib + Foretinib = compound: CC(=O)Nc1cccc(-n2c(=O)n(C3CC3)c(=O)c3c(Nc4ccc(I)cc4F)n(C)c(=O)c(C)c32)c1 [Trametinib] + COc1cc2c(Oc3ccc(NC(=O)C4(C(=O)Nc5ccc(F)cc5)CC4)cc3F)ccnc2cc1OCCCN1CCOCC1 [Foretinib] (partner 0.25 µM)
Method in brief: as §1

[3] = compound: CN1C=C(C2=CC=CC=C21)/C=C\3/C4=C(C=CC=N4)NC3=O + N=C(N)NC(=N)NCCc1ccccc1 [Phenformin] (partner 250 µM)
Method in brief: as §1

Cell Line | relative viability ([1]; first compound 0.02 µM) | relative viability ([1]; first compound 0.06325 µM) | relative viability ([1]; first compound 0.2 µM) | relative viability ([1]; first compound 0.6325 µM) | relative viability ([1]; first compound 2 µM) | relative viability ([2]; first compound 0.02 µM) | relative viability ([2]; first compound 0.06325 µM) | relative viability ([2]; first compound 0.2 µM) | relative viability ([2]; first compound 0.6325 µM) | relative viability ([2]; first compound 2 µM) | relative viability (Trametinib + Foretinib; first compound 0.0025 µM) | relative viability (Trametinib + Foretinib; first compound 0.007906 µM) | relative viability (Trametinib + Foretinib; first compound 0.025 µM) | relative viability (Trametinib + Foretinib; first compound 0.07906 µM) | relative viability (Trametinib + Foretinib; first compound 0.25 µM) | relative viability ([3]; first compound 0.02 µM) | relative viability ([3]; first compound 0.06325 µM) | relative viability ([3]; first compound 0.2 µM) | relative viability ([3]; first compound 0.6325 µM) | relative viability ([3]; first compound 2 µM)
LOU-NH91 | 0.904 | 0.915 | 0.835 | 0.925 | 0.9 | 0.816 | 0.851 | 0.789 | 0.809 | 0.848 | 0.909 | 0.805 | 0.733 | 0.757 | 0.549 | 0.727 | 0.624 | 0.623 | 0.66 | 0.645
NCI-H1666 | 0.972 | 0.991 | 0.938 | 0.879 | 1.02 | 0.902 | 0.909 | 1.06 | 0.926 | 0.991 | 0.892 | 0.758 | 0.709 | 0.685 | 0.59 | 0.57 | 0.527 | 0.481 | 0.577 | 0.494
SK-MES-1 | 0.795 | 0.668 | 0.96 | 0.875 | 0.865 | 1.07 | 0.995 | 0.864 | 1.07 | 0.984 | 0.913 | 0.476 | 0.638 | 0.566 | 0.347 | 0.653 | 0.634 | 0.715 | 0.672 | 0.624
NCI-H2023 | 0.841 | 0.837 | – | 0.924 | 0.746 | 0.697 | 0.562 | – | 0.56 | 0.502 | 0.795 | 0.472 | 0.497 | 0.35 | 0.302 | 0.395 | 0.376 | 0.361 | 0.409 | 0.418
COR-L 105 | 1.09 | 0.993 | 0.834 | 0.957 | 0.952 | 0.845 | 0.682 | 0.774 | 0.793 | 0.768 | 0.815 | 1.19 | 0.489 | 0.552 | 0.374 | 0.518 | 0.444 | 0.496 | 0.489 | 0.486
NCI-H2342 | 1.15 | 0.927 | 1.05 | 0.914 | 1.13 | 0.661 | 0.787 | 0.788 | 0.613 | 0.684 | 1.05 | 0.911 | – | 0.908 | 0.997 | 0.623 | 0.641 | 0.486 | 0.57 | 0.505
NCI-H838 | 0.778 | 0.853 | 1.03 | 0.894 | 0.92 | 0.679 | 0.653 | 0.591 | 0.601 | 0.55 | 0.921 | 0.889 | 0.795 | 0.797 | 0.638 | 0.5 | 0.533 | 0.519 | 0.569 | 0.535
SW 1573 | 0.995 | 0.925 | 0.894 | 0.975 | 0.822 | 0.73 | 0.656 | 0.787 | 0.8 | 0.882 | 0.876 | 0.723 | 0.616 | 0.513 | 0.152 | 0.394 | 0.344 | 0.436 | 0.352 | 0.441

— the supplement of paper PMC10307832
